Data on 20 compounds can be found in patent US12649749B2, “Preparation and application of tricyclic pyrimidinone compound and its composition” (NEUSCO BIOTECH LIMITED, priority 2020, dated 2026).

The target in experiment [1] is T1, Recombinant human Lp-PLA2 enzyme (Homo sapiens, UniProt Q13093).
T1 sequence (Q13093 22-441): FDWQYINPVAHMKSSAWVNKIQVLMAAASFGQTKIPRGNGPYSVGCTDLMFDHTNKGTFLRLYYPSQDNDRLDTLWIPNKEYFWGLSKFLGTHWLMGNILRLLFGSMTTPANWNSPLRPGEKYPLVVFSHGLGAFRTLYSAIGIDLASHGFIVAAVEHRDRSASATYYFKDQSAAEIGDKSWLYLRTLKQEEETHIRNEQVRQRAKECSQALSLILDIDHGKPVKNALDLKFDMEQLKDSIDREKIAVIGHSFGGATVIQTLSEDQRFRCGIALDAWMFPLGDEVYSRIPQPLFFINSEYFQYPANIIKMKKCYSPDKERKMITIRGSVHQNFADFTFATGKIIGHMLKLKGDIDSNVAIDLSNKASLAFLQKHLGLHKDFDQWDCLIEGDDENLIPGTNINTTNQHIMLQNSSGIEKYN
Briefly: Recombinant human Lp-PLA2 (rhLp-PLA2) assay (PED6 assay). It counts as biochemical. To be noted: PED6 substrate; recombinant human Lp-PLA2 at 4 nM or 110 pM; 30 min pre-incubation; fluorescence ex 480/em 540; read-out: rhLp-PLA2 (pIC50) (converted). The text has this:
(1) Recombinant Human Lp-PLA2 (rhLp-PLA2) Assay (also Known as PED6 Assay)
PED6 is a fluorescently labeled phospholipid that can be purchased directly from Invitogene or Molecular Probes. There is a fluorescence-quenching p-nitrophenyl group on the Sn3 position, and a Bodipy fluorescein (FL) group on the sn2 position. Once it is cleaved by the Lp-PLA2 enzyme, the FL group is released, resulting in enhanced fluorescence.
Assay method: The compound to be tested (as shown in Table 1) was mixed with DMSO solution at a volume ratio of 1:3, diluted to prepare a source plate of a 384-well microplate. Then 0.01 μl of the compound was transferred via an ECHO liquid dispenser from the source plate to a 384-well Greiner 784076 plate, and 5 microliters of a buffer composed of 50 mM HEPES, pH 7.4, 150 mM NaCl, 1 mM CHAPS (the buffer solution contains Recombinant human Lp-PLA2 enzyme at a concentration of 4 nM or 110 pM) was added to each well on the plate. The plate was centrifuged at 500 rpm for 10 seconds. After 30 minutes of pre-incubation, 5 microliters of the above buffer solution was added to a 384-well Greiner784076 plate, and the plate was centrifuged at 500 rpm for 10 seconds.

Experiment [2] has as its target T2, Lp-PLA2 enzyme in human plasma (Homo sapiens, UniProt Q13093).
T2 construct: from tissue; host or cells: pooled (mixed) human plasma
T2 sequence (Q13093 22-441): T1 sequence (Q13093 22-441)
Briefly: Human plasma Lp-PLA2 assay (Thio-PAF assay). In kind it is biochemical. Conditions: mixed human plasma; 2-thio-PAF substrate with CPM; 30 min pre-incubation; fluorescence ex 380/em 485; read-out: Thio-PAF (pIC50) (converted). The method, then:
(2) Human Plasma Lp-PLA2 Assay (Also Known as Thio-PAF Assay) The human plasma assay was conducted using the sulphatide analog of PAF (phosphatidylcholine), which is hydrolyzed to produce phospholipids containing free sulfhydryl groups, subjected to Michael addition with CPM to generate fluorescence-enhancing maleimide. Continuous quantitative analysis of thiol could be conducted by detecting the fluorescence intensity. This assay can be used to detect the inhibitory activity of the Lp-PLA2 inhibitor on the Lp-PLA2 enzyme in human plasma. Assay Method: The compound to be tested (as shown in Table 2) was mixed with a DMSO solution in a volume ratio of (1:3), and diluted to prepare a source plate of a 384-well microplate. Then 0.01 μl of the compound was transferred via an ECHO liquid dispenser from the source plate to a 384-well Greiner 784076 low-volume plate, and 8 μl of pre-aliquoted and frozen mixed human plasma was added. The plate was centrifuged at 500 rpm for 10 seconds. After a 30 min pre-incubation, 2 μl of a substrate solution, and containing 2.5 mM 2-thio-PAF (a solution in ethanol), 32 μM CPM (a solution in DMSO) and a buffer of 3.2 mM N-ethylmaleimide (NEM) (a buffer solution consisting of 50 mM HEPES, pH 7.4, 150 mM NaCl, 1 mM CHAPS) was added by a BRAVO liquid handling station to a 384-well Greiner 784076 low-volume plate. After 2 min, the reaction was quenched with 5 μl of 5% trifluoroacetic acid. After the plate was incubated at room temperature for 40 min in a dark place, the fluorescence intensity was read at ex 380/em 485 with an Envision microplate reader, and the XL fitting model in Excel was used to perform the curve analysis and QC analysis to calculate pIC50.

Take `Cc1cc(Oc2c(F)cc(COc3cc4n(c(=O)n3)CC[C@H]3COCCN43)cc2F)ccn1` [Compound 16]: the IC50 in experiment [1] was 0.0794 nM; in experiment [2], 7.94 nM.
For `O=c1nc(OCc2cccc(F)c2F)cc2n1CC[C@@H]1COCCN21` [Compound 2], the IC50 in experiment [1] was 25.1 nM; in experiment [2], 251 nM.
Taken in the same sequence, the figures for `O=c1nc(OCc2cc(F)c(Oc3cccc(C(F)(F)F)c3)c(F)c2)cc2n1CC[C@@H]1COCCN21` [Compound 9] were 0.0631 nM and 6.31 nM.
Taken in the same sequence, the figures for `O=c1nc(OCc2cc(F)c(Oc3ccc(C(F)(F)F)nc3)c(F)c2)cc2n1CC[C@@H]1COCCN21` [Compound 6] were 0.1 nM and 7.94 nM.
Taken in the same sequence, the figures for `O=c1nc(OCc2cc(F)c(Oc3ccnc(C(F)(F)F)c3)c(F)c2)cc2n1CC[C@H]1COCCN21` [Compound 15] were 0.126 nM and 12.6 nM.
As for `O=c1nc(OCc2cc(F)c(Oc3ccc(C(F)(F)F)cc3)c(F)c2)cc2n1CC[C@H]1COCCN21` [Compound 20], the figures for the IC50 in experiment [1] and in experiment [2] were 0.1 nM and 12.6 nM, respectively.
The corresponding values for `Cc1ncc(Oc2c(F)cc(COc3cc4n(c(=O)n3)CC[C@@H]3COCCN43)cc2F)cn1` [Compound 8] are 0.316 nM and 15.8 nM.
Taken in the same sequence, the figures for `O=c1nc(OCc2cc(F)c(F)c(F)c2)cc2n1CC[C@@H]1COCCN21` [Compound 1] were 3.98 nM and 63.1 nM.
For the compound `Cc1cc(Oc2c(F)cc(COc3cc4n(c(=O)n3)CC[C@@H]3COCCN43)cc2F)ccn1` [Compound 5], the values for the IC50 in experiment [1] and in experiment [2] were 0.0631 nM and 3.16 nM, respectively.
Taken in the same sequence, the figures for `O=c1nc(OCc2cc(F)c(Oc3cccc(C(F)(F)F)c3)c(F)c2)cc2n1CC[C@H]1COCCN21` [Compound 19] were 0.0794 nM and 7.94 nM.
The corresponding values for `Cc1ccc(Oc2c(F)cc(COc3cc4n(c(=O)n3)CC[C@@H]3COCCN43)cc2F)cn1` [Compound 7] are 0.0631 nM and 7.94 nM.
The corresponding values for `O=c1nc(OCc2cc(F)c(F)c(F)c2)cc2n1CC[C@H]1COCCN21` [Compound 13] are 6.31 nM and 79.4 nM.
Consider `O=c1nc(OCc2cc(F)c(Oc3ccc(C(F)(F)F)nc3)c(F)c2)cc2n1CC[C@H]1COCCN21` [Compound 17], for which the IC50 in experiment [1] was 0.126 nM; in experiment [2], 12.6 nM.
In the case of `Cc1ccc(Oc2c(F)cc(COc3cc4n(c(=O)n3)CC[C@H]3COCCN43)cc2F)cn1` [Compound 18], the IC50 was 0.1 nM in experiment [1] and 10 nM in experiment [2].
With `O=c1nc(OCc2cc(F)c(Oc3ccnc(C(F)(F)F)c3)c(F)c2)cc2n1CC[C@@H]1COCCN21` [Compound 4], the IC50 in experiment [1] was 0.0794 nM; in experiment [2] it was 6.31 nM.
Turning to `O=c1nc(OCc2cccc(F)c2F)cc2n1CC[C@H]1COCCN21` [Compound 14], the IC50 in experiment [1] was 31.6 nM; in experiment [2], 316 nM.
Take `O=c1nc(OCc2cc(F)c(Oc3cccc(OC(F)(F)F)c3)c(F)c2)cc2n1CC[C@@H]1COCCN21` [Compound 10]: the IC50 in experiment [1] is 0.0794 nM; in experiment [2] it was 10 nM.
Regarding `O=c1nc(OCc2cc(F)c(Oc3ccc(C(F)(F)F)cc3)c(F)c2)cc2n1CC[C@@H]1COCCN21` [Compound 11], the figures for the IC50 in experiment [1] and in experiment [2] were 0.0794 nM and 7.94 nM, respectively.
Taken in the same sequence, the figures for `O=c1nc(OCc2cc(F)c(Oc3ccc(C(F)(F)F)c(Cl)c3)c(F)c2)cc2n1CC[C@@H]1COCCN21` [Compound 12] were 0.0501 nM and 6.31 nM.
On to `O=c1nc(OCc2cc(F)c(F)cc2F)cc2n1CC[C@@H]1COCCN21` [Compound 3], for which the values for the IC50 in experiment [1] and in experiment [2] were 31.6 nM and 316 nM, respectively.
